What was measured:
[1] = tested on: hippocampal neurons derived from LRRK2 BAC transgenic mice; conditions: dose-dependent manner
LRRK2 = LRRK2 (Homo sapiens, UniProt Q5S007); assay: biochemical
Sequence of LRRK2 (Q5S007 whole entry): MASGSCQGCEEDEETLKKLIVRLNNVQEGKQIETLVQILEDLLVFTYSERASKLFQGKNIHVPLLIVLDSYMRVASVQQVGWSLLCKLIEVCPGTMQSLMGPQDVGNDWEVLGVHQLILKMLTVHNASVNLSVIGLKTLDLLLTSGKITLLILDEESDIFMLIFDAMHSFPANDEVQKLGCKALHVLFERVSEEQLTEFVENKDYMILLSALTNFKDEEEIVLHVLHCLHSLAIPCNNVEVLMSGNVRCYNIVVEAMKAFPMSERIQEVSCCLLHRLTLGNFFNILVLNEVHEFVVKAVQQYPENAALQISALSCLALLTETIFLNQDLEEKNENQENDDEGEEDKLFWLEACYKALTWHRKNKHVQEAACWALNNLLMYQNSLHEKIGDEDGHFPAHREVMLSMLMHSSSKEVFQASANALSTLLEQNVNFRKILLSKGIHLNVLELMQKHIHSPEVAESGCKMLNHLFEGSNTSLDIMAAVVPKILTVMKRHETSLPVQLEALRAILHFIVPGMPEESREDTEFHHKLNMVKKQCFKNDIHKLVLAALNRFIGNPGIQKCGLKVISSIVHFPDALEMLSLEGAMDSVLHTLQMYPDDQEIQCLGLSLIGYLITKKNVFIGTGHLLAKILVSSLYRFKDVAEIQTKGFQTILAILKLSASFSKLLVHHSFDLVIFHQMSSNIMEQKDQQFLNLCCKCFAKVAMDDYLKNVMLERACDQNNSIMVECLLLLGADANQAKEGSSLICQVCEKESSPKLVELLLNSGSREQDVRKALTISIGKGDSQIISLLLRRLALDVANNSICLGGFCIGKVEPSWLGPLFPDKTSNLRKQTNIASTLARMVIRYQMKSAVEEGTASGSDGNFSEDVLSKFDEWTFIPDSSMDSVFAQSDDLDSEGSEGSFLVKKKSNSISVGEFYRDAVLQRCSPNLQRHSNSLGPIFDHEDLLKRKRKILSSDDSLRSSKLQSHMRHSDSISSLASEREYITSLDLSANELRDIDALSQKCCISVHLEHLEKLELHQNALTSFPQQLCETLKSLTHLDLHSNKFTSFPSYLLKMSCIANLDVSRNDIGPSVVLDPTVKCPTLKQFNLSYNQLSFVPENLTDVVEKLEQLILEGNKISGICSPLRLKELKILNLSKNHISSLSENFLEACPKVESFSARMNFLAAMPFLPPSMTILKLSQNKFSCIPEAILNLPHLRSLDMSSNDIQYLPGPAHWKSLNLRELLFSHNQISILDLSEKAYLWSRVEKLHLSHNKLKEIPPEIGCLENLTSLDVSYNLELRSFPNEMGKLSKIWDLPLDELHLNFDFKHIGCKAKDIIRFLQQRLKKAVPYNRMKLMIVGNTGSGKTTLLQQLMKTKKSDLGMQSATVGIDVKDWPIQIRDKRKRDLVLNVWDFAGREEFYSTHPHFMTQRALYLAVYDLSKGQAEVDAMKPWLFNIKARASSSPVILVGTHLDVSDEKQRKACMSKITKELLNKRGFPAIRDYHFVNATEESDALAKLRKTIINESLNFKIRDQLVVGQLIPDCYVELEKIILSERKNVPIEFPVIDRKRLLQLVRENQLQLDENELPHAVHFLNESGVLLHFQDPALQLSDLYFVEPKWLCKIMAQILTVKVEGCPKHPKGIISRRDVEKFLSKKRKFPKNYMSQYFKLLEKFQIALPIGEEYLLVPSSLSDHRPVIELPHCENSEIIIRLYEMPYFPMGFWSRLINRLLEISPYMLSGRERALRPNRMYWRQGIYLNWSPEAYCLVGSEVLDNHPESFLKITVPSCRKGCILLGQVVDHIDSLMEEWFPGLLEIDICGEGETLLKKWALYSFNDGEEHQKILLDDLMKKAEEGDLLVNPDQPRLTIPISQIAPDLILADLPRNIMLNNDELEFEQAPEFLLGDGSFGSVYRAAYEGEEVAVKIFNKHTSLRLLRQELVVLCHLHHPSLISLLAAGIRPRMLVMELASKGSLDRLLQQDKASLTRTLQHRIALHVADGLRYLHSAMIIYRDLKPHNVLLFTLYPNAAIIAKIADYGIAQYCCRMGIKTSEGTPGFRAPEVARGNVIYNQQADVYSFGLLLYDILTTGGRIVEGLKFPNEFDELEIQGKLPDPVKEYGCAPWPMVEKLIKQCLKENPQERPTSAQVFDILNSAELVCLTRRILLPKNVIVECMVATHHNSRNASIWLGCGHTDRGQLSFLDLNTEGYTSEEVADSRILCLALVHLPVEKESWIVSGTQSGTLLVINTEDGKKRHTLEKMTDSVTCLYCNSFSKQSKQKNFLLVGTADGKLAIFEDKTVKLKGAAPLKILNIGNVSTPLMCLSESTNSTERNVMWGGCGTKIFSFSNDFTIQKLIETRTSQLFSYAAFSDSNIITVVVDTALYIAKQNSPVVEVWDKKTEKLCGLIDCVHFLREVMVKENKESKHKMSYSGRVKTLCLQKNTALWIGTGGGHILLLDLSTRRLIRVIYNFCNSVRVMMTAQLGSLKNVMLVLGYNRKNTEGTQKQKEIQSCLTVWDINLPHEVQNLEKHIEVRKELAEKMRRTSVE

In the case of CNc1nc(Nc2ccc(C(=O)N3CCOCC3)cc2OC)ncc1C(F)(F)F [G1023, [3-methoxy-4-(4-methylamino-5-trifluoromethyl-pyrimidin-2-ylamino)-phenyl]-morpholin-4-yl-methanone], the “neurite outgrowth defect (total neurite length)” value [1] is reported as “reversed neurite outgrowth defect” and the Ki (LRRK2) is reported as ~4 nM.

— patent US20140228384A1, “ASSAYS AND BIOMARKERS FOR LRRK2” (Genentech, Inc., priority 2011, published 2014)
